Test results taken from ChEMBL document CHEMBL1201862, “PubChem BioAssay data set” (2004).
Activity calls are given as the source filed them.

Legend:
[1] = OVCAR8 cell viability loss – plate reader, dry powder samples, PAX8 project, dose response (AID 743197); format: functional, cell-based; details: OVCAR-8
[2] = molecular target: Paired box protein Pax-8 (Homo sapiens, UniProt Q06710); test: PAX8 transcriptional activity inhibition in RMG-I – RMG-I cells, luciferase, cherry-pick, dose response (AID 687027); format: functional, cell-based;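 also: luciferase reporter driven by Pax8 target thyroperoxidase promoter measured by SteadyGlo luminescence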
Sequence of Paired box protein Pax-8 (Q06710 whole entry): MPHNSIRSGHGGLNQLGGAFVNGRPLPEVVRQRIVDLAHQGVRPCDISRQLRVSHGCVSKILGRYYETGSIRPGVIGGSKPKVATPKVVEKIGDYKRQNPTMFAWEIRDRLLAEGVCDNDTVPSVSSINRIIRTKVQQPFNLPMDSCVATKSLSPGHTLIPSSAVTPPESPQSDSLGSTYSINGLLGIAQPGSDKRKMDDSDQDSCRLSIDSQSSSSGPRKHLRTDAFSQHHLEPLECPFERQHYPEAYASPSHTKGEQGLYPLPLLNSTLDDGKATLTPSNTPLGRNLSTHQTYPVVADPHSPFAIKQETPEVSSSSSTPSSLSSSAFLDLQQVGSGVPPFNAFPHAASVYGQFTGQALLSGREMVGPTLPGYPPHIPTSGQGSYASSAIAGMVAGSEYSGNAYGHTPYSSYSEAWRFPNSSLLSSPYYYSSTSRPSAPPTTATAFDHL

[3] = OVCAR-3 cell viability loss – plate reader, dry powder samples, PAX8 inhibitor project, dose response (AID 743044); format: functional, cell-based
[4] = general cell-killing toxicity readout – plate reader, dry powder samples, cytotoxicity control for PAX8 inhibitor project, dose response (AID 743021); format: functional, cell-based
[5] = molecular target: T1, Tyrosine-protein phosphatase non-receptor type 7 (Homo sapiens, UniProt P35236); test: HePTP tyrosine phosphatase activity blockers – biochemical, absorbance, leukemia target, primary screen (AID 521); format: functional
T1 sequence (P35236 whole entry): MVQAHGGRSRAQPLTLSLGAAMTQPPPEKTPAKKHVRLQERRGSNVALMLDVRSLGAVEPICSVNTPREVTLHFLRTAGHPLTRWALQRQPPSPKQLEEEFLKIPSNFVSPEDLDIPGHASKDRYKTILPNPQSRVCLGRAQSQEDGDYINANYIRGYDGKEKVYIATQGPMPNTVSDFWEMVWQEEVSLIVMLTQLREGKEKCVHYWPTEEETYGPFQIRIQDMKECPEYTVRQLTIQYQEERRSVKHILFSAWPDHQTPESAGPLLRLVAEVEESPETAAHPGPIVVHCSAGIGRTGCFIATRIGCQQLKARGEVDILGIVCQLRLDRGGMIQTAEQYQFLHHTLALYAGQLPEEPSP

[6] = molecular target: T2, Oxysterols receptor LXR-beta (Homo sapiens, UniProt P55055); format: functional, cell-based
T2 sequence (P55055 whole entry): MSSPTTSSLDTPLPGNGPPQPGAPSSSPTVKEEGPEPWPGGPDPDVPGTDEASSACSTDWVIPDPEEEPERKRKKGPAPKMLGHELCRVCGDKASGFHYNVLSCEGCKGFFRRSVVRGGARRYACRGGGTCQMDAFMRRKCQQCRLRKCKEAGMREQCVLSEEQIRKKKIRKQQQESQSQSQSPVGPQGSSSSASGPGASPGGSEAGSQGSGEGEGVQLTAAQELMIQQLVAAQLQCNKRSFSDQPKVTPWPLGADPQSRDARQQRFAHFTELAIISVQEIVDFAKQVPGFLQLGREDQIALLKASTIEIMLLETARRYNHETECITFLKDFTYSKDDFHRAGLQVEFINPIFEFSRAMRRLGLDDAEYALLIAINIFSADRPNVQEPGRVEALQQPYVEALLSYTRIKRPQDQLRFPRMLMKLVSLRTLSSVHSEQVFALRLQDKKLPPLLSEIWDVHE

[7] = cells
[8] = alpha-synuclein stem-loop luciferase translation blockers – H4 neuroglioma cells, luminescence, confirmation (AID 1988); format: functional, cell-based
[9] = Luminescence Cell-Based Dose Response HTS to Identify Inhibitors of 5'UTR Stem-Loop Driven Prion Protein mRNA Translation in H4 Neuroglioblastoma Cells. [Related pubchem assays: 1827 (Project Summary), 1813 (Primary HTS)]; format: functional
[10] = luciferase reporter signal suppression in cells – H4 neuroglioma cells, luminescence, dose response (AID 1990); format: functional, cell-based
[11] = HEK-293T viability loss after treatment – luminescence, T-cell screen hits, cytotoxicity control for TCR NF-kB inhibitor project, dose response (AID 489026); format: functional, cell-based;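 also: cells exposed to compound about 14 hours before the viability readout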
[12] = off-target signal loss in HeLa-CEM21 co-culture – HeLa F-luc CTL cells, cherry-picked, counter-screen for HIV-1 Env fusion inhibitor project, dose response (AID 652040); format: functional, cell-based;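 also: potency for signal decrease marking cytotoxic or nonspecific inhibition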
[13] = HIV-1 AD8 envelope cell-cell fusion blockers – cherry-pick, dose response (AID 652062); format: functional, cell-based;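 also: luciferase signal from cell-cell fusion driven by HIV-1 clade B AD8 Env; potency is for inhibitors of fusion seen as a drop in luminescence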
[14] = blockers of HIV-1 envelope-mediated cell-cell fusion – cherry-pick, dose response (AID 652057); format: functional, cell-based
[15] = blockers of HIV-1 ZM109 envelope-driven cell-cell fusion – HeLa effector, CEM target cells, luciferase, cherry-pick, dose response (AID 652058); format: functional, cell-based;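 also: luciferase signal from HIV-1 Env mediated cell-cell fusion of effector and target cells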
[16] = molecular target: T3, Heat shock factor protein 1 (Mus musculus, UniProt P38532); test: decrease of HSF1-responsive luciferase luminescence – cell-based, NIH3T3, dose retest, confirmation (AID 2382); format: functional;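 also: NIH3T3 fibroblasts with HSF1-driven luciferase reporter stressed by proteasome inhibitor MG132; luminescence from HSF1-driven luciferase expression after 8 hours of MG132 stress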
T3 sequence (P38532 whole entry): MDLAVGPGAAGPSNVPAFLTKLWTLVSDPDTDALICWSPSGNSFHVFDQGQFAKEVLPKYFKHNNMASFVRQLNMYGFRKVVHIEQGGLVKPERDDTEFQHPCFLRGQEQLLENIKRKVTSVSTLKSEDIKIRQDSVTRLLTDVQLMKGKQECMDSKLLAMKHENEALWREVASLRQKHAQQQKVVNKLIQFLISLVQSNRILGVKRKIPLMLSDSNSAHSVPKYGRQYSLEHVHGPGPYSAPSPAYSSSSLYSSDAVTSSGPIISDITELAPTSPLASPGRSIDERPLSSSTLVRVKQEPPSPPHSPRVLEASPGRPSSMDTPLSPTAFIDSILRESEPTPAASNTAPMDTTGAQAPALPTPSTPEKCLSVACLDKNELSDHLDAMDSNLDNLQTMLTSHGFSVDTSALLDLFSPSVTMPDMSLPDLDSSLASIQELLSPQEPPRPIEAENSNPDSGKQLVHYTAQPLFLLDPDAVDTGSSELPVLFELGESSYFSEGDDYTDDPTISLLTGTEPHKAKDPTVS

[17] = molecular target: T4, Ubiquitin carboxyl-terminal hydrolase BAP1 (Homo sapiens, UniProt Q92560); test: inhibition of BAP1 ubiquitin hydrolase activity – biochemical, dose response (AID 714); format: functional
T4 sequence (Q92560 whole entry): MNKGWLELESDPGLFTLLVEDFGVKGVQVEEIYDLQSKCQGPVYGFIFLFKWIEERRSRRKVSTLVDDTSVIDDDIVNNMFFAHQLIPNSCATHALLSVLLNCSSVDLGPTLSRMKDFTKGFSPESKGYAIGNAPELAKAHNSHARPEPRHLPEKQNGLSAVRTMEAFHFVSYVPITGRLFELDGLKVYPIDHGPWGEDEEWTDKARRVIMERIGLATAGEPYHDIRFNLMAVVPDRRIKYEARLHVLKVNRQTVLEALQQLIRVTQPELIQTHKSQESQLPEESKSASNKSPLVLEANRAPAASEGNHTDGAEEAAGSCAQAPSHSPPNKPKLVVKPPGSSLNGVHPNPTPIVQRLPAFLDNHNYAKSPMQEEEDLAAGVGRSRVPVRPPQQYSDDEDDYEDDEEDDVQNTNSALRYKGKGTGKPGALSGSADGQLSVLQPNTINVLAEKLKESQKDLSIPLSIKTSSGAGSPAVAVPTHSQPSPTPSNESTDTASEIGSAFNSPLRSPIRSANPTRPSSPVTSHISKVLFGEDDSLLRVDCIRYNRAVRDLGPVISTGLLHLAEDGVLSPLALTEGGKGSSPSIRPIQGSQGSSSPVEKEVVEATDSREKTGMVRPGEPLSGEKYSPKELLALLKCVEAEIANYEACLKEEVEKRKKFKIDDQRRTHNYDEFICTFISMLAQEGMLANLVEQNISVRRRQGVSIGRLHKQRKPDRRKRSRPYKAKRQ

[18] = molecular target: T2, Oxysterols receptor LXR-beta; format: functional, cell-based; remark: listed apart in the source
[19] = tested on: Vero; test: cells; format: functional; details: Chlorocebus sabaeus
[20] = HGIII-sPLA2 enzyme inhibition potency – biochemical, QFRET, IC50, dose response (AID 743457);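 also: green fluorescence rise as the enzyme cleaves BODIPY PC-A2 in liposomes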
[21] = microbe, parasite or virus in culture; format: functional; details: Mycobacterium tuberculosis
[22] = molecular target: T5, High affinity choline transporter 1 (Homo sapiens, UniProt Q9GZV3); test: human choline transporter blockers, potency – cell-based, 5-point CRC, membrane potential dye, dose response (AID 504840); format: functional
T5 sequence (Q9GZV3 whole entry): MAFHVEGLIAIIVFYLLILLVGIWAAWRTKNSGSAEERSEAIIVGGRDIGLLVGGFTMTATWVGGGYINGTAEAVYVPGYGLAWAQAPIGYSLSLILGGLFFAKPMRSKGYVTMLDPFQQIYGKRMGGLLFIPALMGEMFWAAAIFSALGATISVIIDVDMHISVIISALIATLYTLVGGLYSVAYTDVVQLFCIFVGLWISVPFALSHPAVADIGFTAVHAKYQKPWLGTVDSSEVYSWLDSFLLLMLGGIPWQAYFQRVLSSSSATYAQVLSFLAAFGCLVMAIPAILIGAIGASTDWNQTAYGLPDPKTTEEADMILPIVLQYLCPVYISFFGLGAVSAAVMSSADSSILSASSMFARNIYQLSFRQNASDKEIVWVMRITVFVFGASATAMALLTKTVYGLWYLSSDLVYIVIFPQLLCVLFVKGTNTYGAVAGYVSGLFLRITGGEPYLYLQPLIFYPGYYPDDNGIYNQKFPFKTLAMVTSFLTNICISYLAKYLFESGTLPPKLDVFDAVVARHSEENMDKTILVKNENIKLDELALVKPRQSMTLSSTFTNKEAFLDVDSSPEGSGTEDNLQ

[23] = molecular target: T6, Short transient receptor potential channel 4 (Mus musculus, UniProt Q9QUQ5); test: calcium entry via TRPC4 opening agents – cell-based, HEK293 TRPC4/mu-opioid, Fluo-4 calcium, dose response (AID 434937); format: functional
T6 sequence (Q9QUQ5 whole entry): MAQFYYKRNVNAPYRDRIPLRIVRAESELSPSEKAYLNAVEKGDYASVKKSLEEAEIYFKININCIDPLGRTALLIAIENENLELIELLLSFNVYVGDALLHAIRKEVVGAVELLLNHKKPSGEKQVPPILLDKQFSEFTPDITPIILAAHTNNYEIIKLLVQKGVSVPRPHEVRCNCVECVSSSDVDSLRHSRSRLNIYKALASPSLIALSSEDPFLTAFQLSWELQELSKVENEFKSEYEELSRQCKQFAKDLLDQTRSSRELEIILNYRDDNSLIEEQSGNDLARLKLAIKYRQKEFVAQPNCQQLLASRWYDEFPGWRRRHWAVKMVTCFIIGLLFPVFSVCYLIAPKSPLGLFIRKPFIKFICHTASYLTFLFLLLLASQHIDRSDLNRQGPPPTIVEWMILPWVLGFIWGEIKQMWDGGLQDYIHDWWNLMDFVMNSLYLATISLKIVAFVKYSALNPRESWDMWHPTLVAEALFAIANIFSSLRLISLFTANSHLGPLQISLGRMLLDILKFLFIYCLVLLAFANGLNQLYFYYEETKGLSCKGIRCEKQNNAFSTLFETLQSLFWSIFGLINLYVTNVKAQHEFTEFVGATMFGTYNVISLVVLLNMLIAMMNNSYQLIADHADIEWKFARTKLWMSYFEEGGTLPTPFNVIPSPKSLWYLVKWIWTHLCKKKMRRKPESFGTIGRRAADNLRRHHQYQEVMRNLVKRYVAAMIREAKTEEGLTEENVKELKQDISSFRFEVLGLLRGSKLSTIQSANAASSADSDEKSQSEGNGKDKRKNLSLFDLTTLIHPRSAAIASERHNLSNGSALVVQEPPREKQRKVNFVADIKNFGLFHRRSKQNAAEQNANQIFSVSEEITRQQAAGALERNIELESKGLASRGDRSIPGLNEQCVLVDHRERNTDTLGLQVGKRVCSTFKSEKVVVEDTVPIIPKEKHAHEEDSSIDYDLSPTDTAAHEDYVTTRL

## C[C@@H]1CN([C@@H](C)CO)C(=O)c2cc(NC(=O)Nc3ccc(F)cc3)ccc2O[C@@H](C)CCCCO[C@H]1CN(C)Cc1ccc(C(F)(F)F)cc1
[1]
  AC50: 51.7 µM (active)
[2]
  AC50: 6.74 µM (active)
[3]
  AC50: 16.3 µM (active)
[4]
  AC50: 1.84 µM (active)

## CC(C)C(OC(=O)c1cccs1)C(=O)NCc1ccco1 (stereo not given)
[5]
  IC50: > 100 µM (not active)

## Nc1cccc2c1C(=O)N(CCOc1ccccc1F)C2=O
[6]
  EC50: > 67.6 µM (inactive)
[7]
  EC50: > 67.6 µM (inactive)

## Cc1ccc(NC2=Nc3ccccc3CS2)cc1
[7]
  EC50: > 67.5 µM (inactive)

## C[C@H](CO)N1C[C@H](C)[C@H](CN(C)S(=O)(=O)c2ccc(Cl)cc2)OCCCC[C@H](C)Oc2ccc(NC(=O)Nc3ccc(C(F)(F)F)cc3)cc2C1=O
[2]
  AC50: 4.52 µM (active)
[3]
  AC50: 60 µM (active)
[4]
  AC50: 34.6 µM (active)

## OCCNc1ncnc2c1c(-c1ccccc1)c(-c1ccccc1)n2Cc1ccco1
[5]
  IC50: > 100 µM (not active)

## COc1ccc(/C=c2/sc3n(c2=O)C(c2ccccc2OC)C2=C(N=3)c3ccccc3CC2)cc1O (stereo not given)
[8]
  EC50: 0.403 µM (active)
[9]
  EC50: 13.9 µM (active)
[10]
  EC50: 0.112 µM (active)
[2]
  AC50: 2.28 µM (active)
[4]
  AC50: 52 µM (active)
[11]
  IC50: > 80 µM (inactive)

## Cc1ccc(N=C2Nc3ccccc3CS2)cc1
[6]
  EC50: > 67.5 µM (inactive)

## c1ccc2c(c1)OCC(c1csc3ncnc(N4CCOCC4)c13)O2 (stereo not given)
[12]
  AC50: 21.4 µM (active)
[13]
  AC50: 4.95 µM (active)
[14]
  AC50: 4.1 µM (active)
[15]
  AC50: 11.6 µM (active)
[16]
  EC50: 171 µM (active)
[5]
  IC50: > 100 µM (not active)

## CCOC(=O)c1c(NC(=O)c2cccs2)sc(C)c1CC
[17]
  IC50: 30.4 µM (not active)

## CC(C)C[C@H](NC(=O)OCC1c2ccccc2-c2ccccc21)C(=O)O
[18]
  EC50: > 67.5 µM (inactive)

## CCOC(=O)c1cnc(SCC(=O)Nc2sc(C)c(C)c2C#N)nc1N
[17]
  IC50: 18.7 µM (active)

## Cc1c(-c2ccccn2)c(=O)[nH]n1-c1ccc(F)cc1
[6]
  EC50: > 67.5 µM (inactive)
[7]
  EC50: > 67.5 µM (inactive)

## Cc1cccc(C(=O)NNC(=S)NC(=O)c2ccccc2)c1
[19]
  CC50: > 25 µM (active)
[20]
  IC50: > 122 µM (inactive)
[21]
  CC50: 24 µM (active)
[22]
  IC50: 7.59 µM (active)
[23]
  EC50: 2.11 µM (active)
